Laboratory results: publication PMC2806525, “Proteinase-activated receptor-2 mediated inhibition of TNFα-stimulated JNK activation — A novel paradigm for Gq/11 linked GPCRs” (Cellular Signalling, 2010)
Entries after “also recorded” stand apart in the source; their conditions may differ. Residues, ends and D or L forms follow the SMILES beside them.

Columns and labels:
[1] = tested on: PKC; assay: TNFα-stimulated JNK activity, PKC activator / PKC inhibitor, PAR2 NCTC2544 cells; assay type: cell-based, human
Protocol: (§1) Human skin epithelial cells NCTC2544 were maintained in M199 medium with Earl's salt supplement, 10% (v/v) foetal calf serum, L-glutamine (27 µg/ml), penicillin (250 U/ml), and streptomycin (25 mg/ml). NCTC2544 cells stably expressing human PAR2 (clone G) were maintained in complete M199 medium containing 400 μg/ml of Geneticin for selection pressure and passaged using Versene (2% EDTA/PBS). EAhy-926 cells were produced by hybridizing human umbilical vein endothelial cells (HUVECs) with the epithelial cell line A549 [27] and maintained in Dulbecco's Modified Eagle's Medium (DMEM) supplemented with 10% foetal calf serum (FCS), hypoxanthine/aminopterin/thymidine (HAT supplement), penicillin (250 U/ml) and streptomycin (25 mg/ml), and cells were passaged using Versene.
To measure JNK activity, cells were stimulated as appropriate and the reaction terminated by rapid aspiration and the addition of ice-cold PBS. The cells were solubilised in 20 mM HEPES buffer, pH 7.7, containing 50 mM NaCl, 0.1 mM EDTA, 0.1 mM Na3VO4, 0.1 mM PMSF, 10 mg/ml aprotinin, 10 mg/ml leupeptin, and 1% (w/v) Triton X-100. Lysates were clarified by centrifugation for 5 min at 13,000 rpm and equal amounts of protein were incubated with 20 μg of GST-c-Jun-(5–89) immobilized on glutathione-Sepharose at 4 °C for 3 h. Beads were then washed three times in solubilisation buffer and twice in 25 mM HEPES buffer, pH 7.6, containing 20 mM β-glycerophosphate, 0.1 mM NaV3O4, and 2 mM dithiothreitol. Precipitates were then incubated with the same buffer containing 25 μM/0.5 μCi of ATP/[γ-^32P] ATP in a final volume of 30 µl at 30 °C for 30 min. The reactions were terminated by the addition of 4× SDS-sample buffer and aliquots of each sample subjected to electrophoresis on 11% SDS-polyacrylamide gel electrophoresis. Phosphorylation of GST-c-Jun was then determined by autoradiography.
Where experimental data is shown as a blot, this represents one of at least 3 experiments and data represents the mean ± s.e.m. Statistical analysis was by one-way ANOVA with Dunnett's post test (*P < 0.05, **P < 0.01).
Fig. 5 Pharmacological blockade of protein kinase C reverses PAR2 mediated inhibition of TNFα-stimulated JNK activation. PAR2 expressing NCTC2544 cells (clone G) were pre-incubated with increasing concentrations of GF109203X (GFX) for 30 min then incubated for a further 30 min with 100 nM PMA (Panel A) or 30 nM trypsin (Panel B) prior to stimulation for a further 30 min with TNFα(+) (10 ng/ml). Samples were assessed for JNK activity (Panels A and B) or phospho-JNK levels (Panel D) as outlined in the Methods section. Gels from JNK activity assays were quantified by densitometry (Panel C). Each value represents the mean ± s.e.m from at least 4 experiments. ⁎⁎P < 0.01 compared to TNFα and trypsin stimulated.

[2] = tested on: PKC; assay: TNFα-stimulated JNK phosphorylation, PKC activator / PKC inhibitor, PAR2 NCTC2544 cells; assay type: cell-based, human; details: GF109203X 10 μM; trypsin or SLIGKV-OH; TNFα 10 ng/ml 30 min
Protocol: as §1
Proteins were separated by 10% SDS–PAGE and transferred onto nitrocellulose. The membranes were blocked for non-specific binding for 2 h in 2% BSA (w/v) diluted in NATT buffer (50 mM Tris–HCl, 150 mM NaCl, 0.2% (v/v) Tween-20). […]
Fig. 5 Pharmacological blockade of protein kinase C reverses PAR2 mediated inhibition of TNFα-stimulated JNK activation. […] Samples were assessed for JNK activity (Panels A and B) or phospho-JNK levels (Panel D) as outlined in the Methods section. Gels from JNK activity assays were quantified by densitometry (Panel C). […]

[3] = tested on: TNFR1/TRADD; assay: TNFR1/TRADD complex formation (TNFR1 immuno-precipitation, TRADD immuno-blot), PAR2 expressing cells; assay type: cell-based, human; details: 100 nM YM254890 or 3 μM GF109203X 30 min, peptide 100 μM 30 min, TNFα 10 ng/ml 30 min
Protocol: as §1
Proteins were separated by 10% SDS–PAGE and transferred onto nitrocellulose. The membranes were blocked for non-specific binding for 2 h in 2% BSA (w/v) diluted in NATT buffer (50 mM Tris–HCl, 150 mM NaCl, 0.2% (v/v) Tween-20). The blots were then incubated overnight with 50 ng/ml primary antibody diluted in 0.2% BSA (w/v) in NATT buffer. The blots were washed with NATT buffer for 90 min and incubated with HRP-conjugated secondary antibody (20 ng/ml in 0.2% BSA (w/v) diluted in NATT buffer) for 2 h. After a further 90 min wash, the blots were subjected to ECL reagent and exposed to Kodak X-ray film.
For immuno-precipitation of TNFR1, equal amounts of pre-cleared cell lysates were incubated in Tris–HCl buffer, pH 7.4, containing 50 mM NaCl, 1 mM EDTA, 1 mM EGTA, 1% (w/v) Triton X-100, and 0.5% (w/v) Nonidet P-40, with 2 μg TNFR1 antibody, pre-coupled to protein G, for 3 h. Lysates were recovered by sequential washes in solubilisation buffer and in the same buffer lacking detergents. Precipitates were assessed for TRADD or RIP content using Western blotting.
Fig. 7 PAR2 mediated TNFR1 adapter protein disruption in PAR2 expressing cells. In Panel A, cells were pre-treated with peptide (100 μM) or vehicle prior to stimulation with TNFα (10 ng/ml) for 30 min. Lysates were immuno-precipitated for TNFR1 and immuno-blotted for TRADD and/or RIP, as outlined in the Methods section. In Panel B cells were pre-treated with 100 nM YM254890 or 3 μM GF109203X for 30 min prior to pre-treatment with peptide (100 μM), for 30 min, then incubated for a further 30 min with TNFα (10 ng/ml). TNFR1 immuno-precipitates were immuno-blotted for TRADD. Each gel is representative of at least three experiments.

[4] = tested on: PKC isoforms; details: cited from earlier work
Description: We then examined the potential signalling pathways which could be mediating the inhibitory effects of PAR2. PAR2 is coupled to a number of signalling pathways via G-protein dependent and independent mechanisms. […] Therefore, we tested the effect of the PKC inhibitor GF109203X on PAR2 mediated inhibition of JNK activity and phosphorylation. ... || We then sought to investigate the possible mechanisms by which PAR2 mediated inhibition of JNK might occur. […] This is typical of a number of keratinocyte cell type ...

[5] = molecular target: T1, human PAR2 (Homo sapiens, UniProt P55085); assay: TNFα-stimulated JNK activity (in vitro c-Jun phosphorylation), PAR2 agonist pre-incubation, PAR2 NCTC2544 cells (clone G); assay type: cell-based; details: 30 min pre-incubation, then TNFα 30 min, mean ± s.e.m, at least 4 experiments
T1 construct: expressed in transfected cells
T1 sequence (P55085 26-397): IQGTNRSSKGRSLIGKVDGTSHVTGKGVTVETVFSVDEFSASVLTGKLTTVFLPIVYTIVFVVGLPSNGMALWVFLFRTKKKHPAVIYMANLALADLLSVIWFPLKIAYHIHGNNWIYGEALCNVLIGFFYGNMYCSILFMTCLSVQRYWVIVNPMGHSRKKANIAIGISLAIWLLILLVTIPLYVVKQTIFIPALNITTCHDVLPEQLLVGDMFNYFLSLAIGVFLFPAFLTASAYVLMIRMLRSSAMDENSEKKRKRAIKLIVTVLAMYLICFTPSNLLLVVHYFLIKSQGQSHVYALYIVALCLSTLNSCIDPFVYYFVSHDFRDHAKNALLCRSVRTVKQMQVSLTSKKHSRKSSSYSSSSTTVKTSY
Protocol: as §1
To measure JNK activity, cells were stimulated as appropriate and the reaction terminated by rapid aspiration and the addition of ice-cold PBS. […] Phosphorylation of GST-c-Jun was then determined by autoradiography. […]
Fig. 1 PAR2 activation mediates inhibition of TNFα-stimulated JNK activity and phosphorylation in PAR2 NCTC2544 cells. […] Samples were assessed for JNK activity (Panel A) or phospho-JNK levels (Panel C) as outlined in the Methods section. Gels from JNK assays were quantified (Panel B). Each value represents the mean ± s.e.m from at least 4 experiments and data was quantified by densitometry. ⁎P < 0.05, ⁎⁎P < 0.01 compared to TNFα alone.
(§2) Fig. 4 Concentration response effects of PAR2 peptides for activation of JNK and inhibition of TNFα-stimulated JNK. PAR2 expressing NCTC2544 cells (clone G) were incubated with increasing concentrations of SLIGKV-OH or 2f-LIGKV-OH for 30 min and assayed for JNK activity (Panel B) or stimulated for a further 30 min with TNFα (+) before JNK activity was assessed (Panel A). Samples were assessed for JNK activity as outlined in the Methods section. Gels from JNK assays were quantified (Panel C). Each value represents the mean ± s.e.m from at least 4 experiments and data was quantified by densitometry.

[6] = molecular target: T1, human PAR2; assay: JNK activity, agent alone, PAR2 NCTC2544 cells (clone G); assay type: cell-based; details: 30 min, no TNFα, mean ± s.e.m, at least 4 experiments
Protocol: as §1
To measure JNK activity, cells were stimulated as appropriate and the reaction terminated by rapid aspiration and the addition of ice-cold PBS. The cells were solubilised in 20 mM HEPES buffer, pH 7.7, containing 50 mM NaCl, 0.1 mM EDTA, 0.1 mM Na3VO4, 0.1 mM PMSF, 10 mg/ml aprotinin, 10 mg/ml leupeptin, and 1% (w/v) Triton X-100. Lysates were clarified by centrifugation for 5 min at 13,000 rpm and equal amounts of protein were incubated with 20 μg of GST-c-Jun-(5–89) immobilized on glutathione-Sepharose at 4 °C for 3 h. […] Phosphorylation of GST-c-Jun was then determined by autoradiography. […]
as §2

With `CN(C)CCCn1cc(C2=C(c3c[nH]c4ccccc34)C(=O)NC2=O)c2ccccc21` [GF109203X] the “reversal of PAR2 mediated inhibition of JNK activity by PKC inhibitor” value ([1]; GF109203X 10 μM (maximal concentration), trypsin 30 nM or SLIGKV-OH, TNFα 10 ng/ml 30 min) was “reversed the inhibitory effect of trypsin and SLIGKV-OH on TNFα-stimulated JNK activation”, the “reversal of PAR2 mediated JNK inhibition by PKC inhibitor, general statement” value ([1]; abstract / discussion) was “the effects of both agents were reversed; also recorded: good reversal of PAR2 mediated inhibition” and the “reversal of PMA effect on TNFα-stimulated JNK activity” value ([1]; micromolar concentrations GF109203X 30 min, 100 nM PMA 30 min, TNFα 10 ng/ml 30 min) was “reversed by micromolar concentrations”. For the same molecule, the “reversal of PAR2 mediated inhibition of JNK phosphorylation by PKC inhibitor” value [2] was “reversed the inhibitory effect”, the “reversal of PAR2 mediated disruption of TNFR1/TRADD complex” value [3] was “effectively reversed PAR2 mediated disruption” and the “PKC isoform inhibition” value ([4]; ref [40–42]) was “block both Ca^2+-dependent and some novel PKC isoforms”.
In the case of `Cn1c2ccccc2c2c3c(c4c5ccccc5n(CCC#N)c4c21)CNC3=O` [Go6976], the “effect of classical PKC inhibitor on PAR2 mediated JNK inhibition” value ([1]; not shown) is given as “without effect” and the “PKC isoform preference” value ([4]; no reference given) is given as “preferentially inhibits the classical group of PKC isoforms”.
With `CC[C@H](C)[C@H](NC(=O)[C@H](CC(C)C)NC(=O)[C@@H](N)CO)C(=O)NCC(=O)N[C@@H](CCCCN)C(=O)N[C@H](C(=O)O)C(C)C` [SLIGKV-OH] (H-SLIGKV-OH) the IC50 ([5]; densitometry, read-out: IC50, inhibition of TNFα-stimulated JNK activity) was 6.24 ± 1.32 µM, the “% inhibition of TNFα-stimulated JNK activity” value ([5]; maximal efficacy comparison) was 93.567 ± 6.882% and the EC50 ([6]; densitometry, read-out: EC50, stimulation of JNK activity by peptide alone) was 10.1 ± 3.3 µM. For the same molecule, the “% stimulation of JNK activity alone” value ([6]; maximal efficacy comparison) was 43.950 ± 6.482%.
